# Measurements as given in patent publication US7550430B2, “Cationic antimicrobial peptides and compositions” (E.I. du Pont de Nemours and Company, priority 2003, dated 2009).
# Like-named read-outs stand apart in the source and are kept apart here. Marks after values point to notes of the source that are not given here. Where a SMILES comes first, the peptide text is derived from it. Bridges are numbered along the chain shown (N, C = ends). Where no end group is shown, it is not given here. The star is where a group is joined. Acm = CC(=O)NC*
# How the values were obtained:
# Format in all cases: cell-based
# E. coli ATCC 25922 = settings: for MIC: ATCC 25922, 24 h; for MIC E. coli 25922 Expt. #1 / MIC E. coli 25922 Expt. #2: ATCC 25922
# Method: (§1) The minimal inhibitory concentration (MIC) for the peptides was determined in sterile microtiter plates in a final volume of 200 μL using Trypticase Soy Broth (TSB; Difco Laboratories, Detroit, Mich.) as the growth medium. Serial two-fold dilutions of the peptide stock were made in the plate wells such that concentrations ranged from 512 to 2 μg/mL in a volume of 100 μL. Each well was then inoculated with 100 μL of a dilute suspension of bacteria in TSB yielding a final concentration of 1×10^4 bacteria/mL. The final peptide concentrations ranged from […]. The assay plates were incubated at 37° C. for 24 hours inside a Bioscreen C microtitre plate reader (Thermo Labsystems; Vantaa, Finland). Optical Density (OD) of the medium at 600 nm was recorded every 20 minutes to monitor cell growth. The lowest concentration of peptide preventing bacterial growth during the 24 hr period was defined as the MIC.
# S. aureus 29213 = tested on: S. aureus 29213
# Method: as §1
# K. pneumoniae 700603 = tested on: K. pneumoniae 700603
# Method: as §1
# P. aeruginosa 27853 = tested on: P. aeruginosa 27853
# Method: as §1
# E. coli ATCC #25922 = settings: ATCC #25922, 4 h
# Method: Antimicrobial activity of the peptide immobilized on polymer substrates was evaluated in a Shake Flask Test. Test substance (polymer with immobilized peptide) or control substance (polymer alone) (50 mg suspended in […] phosphate buffer (pH 7)) was added to a sterile culture plate well; a dilute suspension of bacteria (1×10^5 cells/mL final concentration in the well) in 0.6 mM phosphate buffer was added to the well for a final volume of 5 mL. The plate was shaken on a platform shaker at room temperature. At specified times (4 hours and 24 hours), an aliquot was removed from the culture plate (0.1 mL, in triplicates), and serial dilutions ranging from 1 to 100 fold were made for enumeration of cells on trypticase soy agar (TSA) plates. The TSA plates were incubated for 20 hr at 37° C., and the number of colony forming units (CFU) per mL was determined.
Compound,MIC (E. coli ATCC 25922) [µg/mL],MIC S. aureus 29213 (S. aureus 29213; 29213) [µg/mL],MIC K. pneumoniae 700603 (K. pneumoniae 700603) [µg/mL],MIC P. aeruginosa 27853 (P. aeruginosa 27853) [µg/mL],MIC E. coli 25922 Expt. #1 (E. coli ATCC 25922),MIC E. coli 25922 Expt. #2 (E. coli ATCC 25922) [µg/mL],log reduction in E. coli CFU/mL (E. coli ATCC #25922) [log],MIC S. aureus 29213 (S. aureus 29213; ATCC 29213)
"CC(=O)NCSC[C@H](NC(=O)[C@H](CC(C)C)NC(=O)[C@H](CCCCN)NC(=O)[C@H](CC(C)C)NC(=O)[C@H](CC(C)C)NC(=O)[C@H](CCCCN)NC(=O)[C@H](CCCCN)NC(=O)[C@H](CC(C)C)NC(=O)CNC(=O)[C@H](CCCCN)NC(=O)[C@H](CC(C)C)NC(=O)[C@H](CC(C)C)NC(=O)[C@H](CCCCN)NC(=O)[C@H](CCCCN)NC(=O)[C@H](CC(C)C)NC(=O)[C@@H](N)CSCNC(C)=O)C(=O)O [SEQ ID NO:25, CLKKLLKGLKKLLKLC] (H-C(Acm)LKKLLKGLKKLLKLC(Acm)-OH; N-terminus and C-terminus assumed)",8,,,,,,,
CC(C)C[C@@H]1NC(=O)CNC(=O)[C@H](CCCCN)NC(=O)[C@H](CC(C)C)NC(=O)[C@H](CC(C)C)NC(=O)[C@H](CCCCN)NC(=O)[C@H](CCCCN)NC(=O)[C@H](CC(C)C)NC(=O)[C@@H](NC(=O)[C@@H](N)CCCCN)CSSC[C@@H](C(=O)O)NC(=O)[C@H](CC(C)C)NC(=O)[C@H](CCCCN)NC(=O)[C@H](CC(C)C)NC(=O)[C@H](CC(C)C)NC(=O)[C@H](CCCCN)NC(=O)[C@H](CCCCN)NC1=O [SEQ ID NO:31] (H-KCLKKLLKGLKKLLKLC-OH; disulfide 2-17; N-terminus and C-terminus assumed),16,,,,,,,
CC(C)C[C@@H]1NC(=O)CNC(=O)[C@H](CCCCN)NC(=O)[C@H](CC(C)C)NC(=O)[C@H](CC(C)C)NC(=O)[C@H](CCCCN)NC(=O)[C@H](CCCCN)NC(=O)[C@H](CC(C)C)NC(=O)[C@@H](N)CSSC[C@@H](C(=O)O)NC(=O)[C@H](CC(C)C)NC(=O)[C@H](CCCCN)NC(=O)[C@H](CC(C)C)NC(=O)[C@H](CC(C)C)NC(=O)[C@H](CCCCN)NC(=O)[C@H](CCCCN)NC1=O [SEQ ID NO:38] (H-CLKKLLKGLKKLLKLC-OH; disulfide 1-16; N-terminus and C-terminus assumed),32,,,,,,,
"CC(=O)NCSC[C@H](NC(=O)[C@H](CC(C)C)NC(=O)[C@H](CCCCN)NC(=O)[C@H](CC(C)C)NC(=O)[C@H](CC(C)C)NC(=O)[C@H](CCCCN)NC(=O)[C@H](CCCCN)NC(=O)[C@H](CC(C)C)NC(=O)CNC(=O)[C@H](CCCCN)NC(=O)[C@H](CC(C)C)NC(=O)[C@H](CC(C)C)NC(=O)[C@H](CCCCN)NC(=O)[C@H](CCCCN)NC(=O)[C@H](CC(C)C)NC(=O)[C@H](CSCNC(C)=O)NC(=O)[C@@H](N)CCCCN)C(=O)O [compound 17, KC(Acm)LKKLLKGLKKLLKLC(Acm)] (H-KC(Acm)LKKLLKGLKKLLKLC(Acm)-OH; N-terminus and C-terminus assumed)",4,,,,,,,
"KGGKKLLKGLKKLLKL [SEQ ID NO:43, KGGKKLLKGLKKLLKL]",,256,64,16,<=4* μg/mL,2,,
"KGLKKGLKGLKKLLKL [SEQ ID NO:40, KGLKKGLKGLKKLLKL]",256,,,,,,,
"KGLKKGLKLLKKLLKL [SEQ ID NO:2, KGLKKGLKLLKKLLKL]",,64 to 128,4 to 8,8,<=4* μg/mL,2,,
"KGLKKLGKLLKKLLKL [SEQ ID NO:42, KGLKKLGKLLKKLLKL]",,64,4 to 8,8 to 16,<=4* μg/mL,2,,
"KGLKKLLKGLKKLLKL [SEQ ID NO:1, KGLKKLLKGLKKLLKL]",4,8,8 to 16,2,,2 to 4,4.6,
"KGLKKLLKLGKKLLKL [SEQ ID NO:3, KGLKKLLKLGKKLLKL]",,64 to 128,8,8,<=4* μg/mL,2,,
"KGLKKLLKLLKKGLKL [SEQ ID NO:5, KGLKKLLKLLKKGLKL]",,,8 to 16,8,<=4* μg/mL,2,,32+ μg/mL
